Measured values taken from patent US20210238136A1, “AZETIDINE DERIVATIVE, AND PRODRUG THEREOF” (DAIICHI SANKYO COMPANY, LIMITED, priority 2018, published 2021).

Assays:
[1] = test system: IFN-α production in mouse splenocytes (pDC activation by CpG-ODN D35); experiment: IFN-α production in mouse splenocytes stimulated with TLR9 ligand CpG-ODN D35; type: cell-based, mouse (C57BL/6J); details: for IC50: Splenocyte, mouse splenocytes, CpG-ODN D35 1 μM, 24 hours of culture, ELISA; for effect on IFN-α production: test substances added at 1 nM to 300 nM
Protocol: The test substances were added at concentrations of 1 nM to 300 nM.
Effect of Test Substance on IFN-α Production in Mouse Splenocytes
Production of IFN-α by TLR9 ligand CpG-ODN D35 stimulation activating pDC was evaluated. Splenocytes were prepared from euthanized C57BL/6J mice in the same way as Test Example 1. Splenocytes were seeded into 96-well round-bottom plates, and test substance was added, and then the plates were preincubated for 30 minutes. Then, CpG-ODN D35 (final concentration 1 μM) was added, and the cells were cultured at 37° C. under 5% CO2. After 24 hours of culture, the culture supernatant was collected, and the IFN-α concentration in the supernatant was measured with an ELISA kit (Mouse IFN-alpha Platinum ELISA Kit, eBioscience). The relative value of the IFN-α concentration of each well when the IFN-α production of the test substance-free group was set as 100% and the amount of the non-stimulated group as 0% (IFN-α production rate, % of vehicle) was calculated. The relative value of the IFN-α concentration was incorporated into analysis software Prism (Version 5.0, GraphPad Software), the “Nonlinear Regression Log (inhibitor) vs Reaction Variable Inclination” was selected for each compound, and then sigmoid fitting with restrictions of Bottom=0 and Top=100 was performed to create a graph of the concentration reaction curve and calculate 50% inhibitory concentration (IC50).

[2] = test system: activated T cells (CD4+ T cells from mouse spleen); experiment: 3H-thymidine uptake in activated T cells; type: cell-based, mouse (C57BL/6J); details: T-cell; mouse spleen CD4+ T cells activated with Dynabeads Mouse T-Activator CD3/CD28; read-out: IC50 (3H-thymidine uptake, proliferation of activated T cells)
Protocol: Effect of Test Substance on ^3H-Thymidine Uptake in Activated T Cells
The effect of test substance on ^3H-thymidine uptake by activation was evaluated using T cells from mouse spleen. The spleen was removed from euthanized C57BL/6J mice, and finely sliced, then triturated on a cell strainer (40 μm mesh), and cells were collected by centrifugation. The collected splenocytes were treated with Cold lyser containing 0.17 M NH4Cl for 5 minutes to hemolytically remove red blood cells and then washed. The resulting cells were used as the splenocytes. From the splenocytes, CD4+ T cells were isolated using an EasySep Mouse CD4+ T cell isolation kit (STEMCELL Technologies Inc.). The CD4+ T cells were seeded into 96-well round-bottom plates. To the plates, test substance or Vehicle was added, and Dynabeads Mouse T-Activator CD3/CD28 (Thermo Fisher Scientific Inc.) was added, then the cells were cultured at 37° C. under 5% CO2. After 24 hours of culture, ^3H-Thymidine (PerkinElmer Inc.) diluted with medium was added to each well, then the cells were further cultured at 37° C. under 5% CO2 overnight. To measure ^3H-Thymidine uptake into the nuclei of the cells, the cells were collected into filter plates UniFilter-96 GF/B (PerkinElmer Inc.) using a FilterMate Universal Harvester (PerkinElmer Inc.). The filter plates were placed in a dryer and left still for 2 hours or more. Then, scintillation cocktail MicroScint-O (PerkinElmer Inc.) was added to the plates, and radioactivity was measured with TopCount NXT (PerkinElmer Inc.). With the radioactivity of the test substance-free group set as 100% and the radioactivity of the non-activation group as 0%, the relative value (proliferation rate, % of vehicle) of the radioactivity of each well to which test substance was added was calculated. The value of % of vehicle was incorporated into analysis software Prism (Version 5.0, GraphPad Software), the “Nonlinear Regression Log (inhibitor) vs Reaction Variable Inclination” was selected, and then sigmoid fitting with restrictions of Bottom=0 and Top=100 was performed to calculate 50% inhibitory concentration (IC50).

[3] = Pharmacokinetic test of prodrug compounds in mouse; type: in vivo, females, non-fasting); details: female, C57BL/6J; mouse plasma, IV 1 mg/kg of the active compound; read-out: AUClast after IV administration
Protocol: For prodrug compounds, the compounds of Examples 44, 103, and 104 (active compound of these is the compound of Example 41) and the compounds of Examples 89, 94, and 97 (active compound of these is the compound of Example 42), the plasma concentrations of the active compounds after oral administration to mice were measured, and various PK parameters were calculated. The method was as follows:
To C57BL/6J mice (females, non-fasting), the Example compounds were administered and blood sampling was performed under the following conditions.
Intravenous (IV): 1 mg/kg (n=2, 10% HP-β-CD dissolved in Saline/DMSO=95/5, v/v) Oral (PO): 10 mg/kg (n=2, 0.5% HPC dissolved in water)
After blood sampling, plasma was obtained by centrifugation, and to 10 μL of the obtained plasma, an equal amount of DMSO was added. […] The obtained samples were measured and quantitatively analyzed using MassLynx (version 4.1, Waters Corporation) under the following conditions.
From the plasma concentration measurements of the obtained active compound, the following PK parameters were calculated using Moment (Microsoft Excel).
AUClast: Area under plasma concentration-time curve to the last quantifiable time point Cmax: Maximum plasma concentration

Row | IC50 [1] [nM] | AUC(0-t) [3] [ng·h/mL] | Structure (SMILES) | effect on IFN-α production [1] | IC50 [2] [nM]
1 | 13 | 499 | N[C@@H](Cc1cccc(S(=O)(=O)N2CC(Oc3cccc(F)c3)(c3ccccc3)C2)c1)C(=O)O [Example 42, (S)-2-Amino-3-(3-((3-(3-fluorophenoxy)-3-phenylazetidin-1-yl)sulfonyl)phenyl)propanoic acid] | concentration-dependent suppression effects | 4.1
2 | 21 | 728 | N[C@@H](Cc1cccc(S(=O)(=O)N2CC(Oc3ccc(F)cc3)(c3ccccc3)C2)c1)C(=O)O [Example 41, (S)-2-Amino-3-(3-((3-(4-fluorophenoxy)-3-phenylazetidin-1-yl)sulfonyl)phenyl)propanoic acid] | concentration-dependent suppression effects | 5.1
